Patent US20140163034A1, “INHIBITORS OF ANANDAMIDE TRANSPORT AND THEIR THERAPEUTIC USES” (IIT - Istituto Italiano di Tecnologia, priority 2011, published 2014)

Key:
carrageenan-treated mice = test: Carrageenan-induced inflammatory pain and paw edema in mice; type: in vivo; conditions: for effect of antagonist on the anti-hyperalgesic and anti-edema effects of ARN272: antagonist 1 mg/kg intraperitoneal, 30 min before carrageenan
Description: Behavioral experiments were performed in accordance with the Ethical Guidelines of the International Association for the Study of Pain and approved by Italian regulations on protection of animals used for experimental and other scientific purposes (D.M. 116192) as well as with European Economic Community regulations (O.J. of E.C. L 358/1 Dec. 18, 1986). Behavioral testing was performed between 9:00 a.m. and 5:00 p.m., in a quiet room, during the light cycle. Mice were used once and were sacrificed at the end of the experiment by cervical dislocation. edema was elicited by injecting λ-carrageenan (1% weight/vol in sterile water, 20 μl) into the left hindpaw of mice. Edema was measured with a plethysmometer (Ugo Basile, Comerio, Italy) at different time intervals. Drug solutions were prepared immediately before use in saline containing 10% PEG-400 and 10% Tween 80. Mechanical hyperalgesia was determined by measuring the latency in seconds to withdraw the paw away from a constant mechanical pressure exerted onto the dorsal surface. A 15-g calibrated glass cylindrical rod (diameter=10 mm) chambered to a conical point (diameter=3 mm) was used to exert the mechanical force. The weight was suspended vertically between two rings attached to a stand and was free to move vertically. A cutoff time of 180 s was used. Withdrawal thresholds were measured on both the inflamed paw (ipsilateral) and not inflamed paw (contralateral) 2, 4, 6 and 24 hours after carrageenan injection. Thermal hyperalgesia was assessed by the method of Hargreaves et al. (1988) by measuring the latency to withdraw the hind paw from a focused beam of radiant heat (thermal intensity: infrared 3.0) applied to the plantar surface using a plantar test apparatus (Ugo Basile). The cutoff time was set at 30 s. Withdrawal latency were measured on both inflamed and not-inflamed paws ( ) 2, 4, 6 and 24 hours after carrageenan injection. Vehicle or ARN272 (0.01-3 mg/kg, intraperitoneal) were injected immediately before carrageenan. AM251, AM630 and AMG 9810 (1 mg/kg, intraperitoneal) were injected 30 min before carrageenan.

rat FLAT-GST = biological target: T1, rat FLAT-GST (Rattus norvegicus, UniProt P97612, DEL9-76); test: [3H]-anandamide binding to purified GST-FLAT fusion protein
T1 construct: made in house; host or cells: E. coli BL21
T1 sequence (P97612 with tags, fused parts or gaps DEL9-76): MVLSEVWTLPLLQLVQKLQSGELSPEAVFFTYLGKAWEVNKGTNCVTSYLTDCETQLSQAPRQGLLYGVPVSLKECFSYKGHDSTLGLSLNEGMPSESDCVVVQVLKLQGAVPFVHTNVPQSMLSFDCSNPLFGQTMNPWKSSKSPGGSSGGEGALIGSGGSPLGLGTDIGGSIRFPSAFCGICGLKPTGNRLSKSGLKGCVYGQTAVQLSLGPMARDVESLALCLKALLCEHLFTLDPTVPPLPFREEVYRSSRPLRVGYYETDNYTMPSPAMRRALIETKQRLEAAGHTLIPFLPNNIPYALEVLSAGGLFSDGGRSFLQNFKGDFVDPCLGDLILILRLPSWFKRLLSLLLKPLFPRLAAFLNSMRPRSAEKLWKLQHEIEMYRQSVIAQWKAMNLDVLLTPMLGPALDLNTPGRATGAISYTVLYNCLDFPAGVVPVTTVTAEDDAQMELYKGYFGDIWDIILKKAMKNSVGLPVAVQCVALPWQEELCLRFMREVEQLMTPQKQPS
Description: A pGEX-rFLAT plasmid containing fused rat FLAT and GST genes was constructed into a pGEX-4T vector (Amersham Biosciences, Piscataway, N.J.) and digested with BamH 1. The GST-FLAT fusion protein was generated in E. coli (BL21 strain, Novagen, San Diego, Calif.). E. coli were cultured in 2× yeast extract medium and induced with isopropyl-1-thio-β-D-galactopyranoside (IPTG) (0.1 mM). After induction, bacteria were grown at 27° C. for 10 h and harvested by centrifugation. The GST-FLAT fusion protein was purified using glutathione-sepharose beads (Amersham Biosciences), following manufacturer's instructions. Purified GST-FLAT was incubated at 25° C. for 2 h in HEPES buffer (50 mM, pH 7.0) containing KCl (50 mM), EDTA (5 mM), dithiothreitol (10 mM), and [^3H]-anandamide (15 Ci/mmol). Free from bound [^3H]-anandamide was separated on a Sephadex G-25 spin column (Amersham Biosciences) and radioactivity in the bound fraction was measured by liquid scintillation counting. Non-specific binding was determined in the presence of non-radioactive anandamide (10 μM).

[1] = biological target: T2, FLAT-expressing Hek293 cells (Rattus norvegicus, UniProt P97612, DEL9-76); test: [3H]-anandamide accumulation (translocation) in FLAT-expressing Hek293 cells; type: cell-based; conditions: for IC50: 5 min at 37° C., read-out: IC50, inhibition of [3H]-anandamide accumulation in FLAT-expressing Hek293 cells
T2 construct: expressed in transfected cells
T2 sequence (P97612 with tags, fused parts or gaps DEL9-76): T1 sequence (P97612 with tags, fused parts or gaps DEL9-76)

[2] = Fatty acid amide measurements ex vivo (plasma levels in mice); conditions: 1 mg/kg intraperitoneal
Description: CD1 mice received intraperitoneal injections of vehicle (5% polyethylene glycol 400-5% Tween-80 in saline, 5 ml/kg) or ARN272 (1 mg/kg) and were sacrificed 1 h or 2 h later under isoflurane anaesthesia. Blood was collected through a left cardiac puncture and centrifuged at 2000×g for 30 min. Plasma (0.2 ml) was incubated with 1 ml cold acetone, centrifuged at 1,500×g for 15 min at 4° C. and suspended in 50% methanol (2 ml) containing the following deuterium-containing standards: […] Lipids were reconstituted in methanol (0.1 ml) and measured by isotope-dilution liquid chromatography/mass spectrometry (Fu, J. et al., J Biol Chem, 282, 1518 (2007)).

[3] = biological target: T3, CB1 cannabinoid receptors (Rattus norvegicus, UniProt P20272); test: Cannabinoid receptor binding assay, [3H]-CP55940 to rat brain membranes
T3 construct: Brain membrane protein (50 μg) was incubated at 30° C. for 1 hr; from tissue; host or cells: rat brain membranes

rat brain FAAH = biological target: T4, rat brain FAAH (Rattus norvegicus, UniProt P97612); test: FAAH activity assay, rat brain; type: biochemical; conditions: weak and incomplete inhibition
T4 construct: from tissue; host or cells: rat brain membranes
T4 sequence (P97612 1-579): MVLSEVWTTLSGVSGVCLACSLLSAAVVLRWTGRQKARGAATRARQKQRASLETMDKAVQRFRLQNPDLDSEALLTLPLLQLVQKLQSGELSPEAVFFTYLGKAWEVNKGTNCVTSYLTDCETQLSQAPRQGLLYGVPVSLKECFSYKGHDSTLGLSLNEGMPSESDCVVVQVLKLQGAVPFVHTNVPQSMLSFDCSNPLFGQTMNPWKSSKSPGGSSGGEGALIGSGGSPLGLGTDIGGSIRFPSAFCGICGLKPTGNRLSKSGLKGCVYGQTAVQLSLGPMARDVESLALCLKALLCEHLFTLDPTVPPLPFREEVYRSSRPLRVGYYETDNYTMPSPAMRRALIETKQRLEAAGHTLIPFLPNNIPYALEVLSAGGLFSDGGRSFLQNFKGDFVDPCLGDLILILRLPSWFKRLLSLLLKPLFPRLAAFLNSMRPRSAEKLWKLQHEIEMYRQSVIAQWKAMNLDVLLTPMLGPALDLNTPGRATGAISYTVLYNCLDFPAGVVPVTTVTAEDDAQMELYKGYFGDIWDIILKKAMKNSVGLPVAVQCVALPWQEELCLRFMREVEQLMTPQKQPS
Description: Cells were harvested and subjected to sonication in Tris-HCl buffer (50 mM, pH 8.0) containing sucrose ([…]). Debris was removed by centrifugation for 5 min at 1,000×g, and protein concentration measured using a commercial kit (Bio-Rad, Hercules, Calif.). […] After stopping the reactions with chloroform/methanol (1:1, vol/vol, 1 ml), radioactivity was measured in the aqueous layers.

recombinant human FAAH-1 = biological target: T5, recombinant human FAAH-1 (Homo sapiens, UniProt O00519); test: Hydrolysis of compound by incubation with recombinant human FAAH-1; type: in vitro ADME; conditions: after 24 h at 25° C.
T5 sequence (O00519 1-579): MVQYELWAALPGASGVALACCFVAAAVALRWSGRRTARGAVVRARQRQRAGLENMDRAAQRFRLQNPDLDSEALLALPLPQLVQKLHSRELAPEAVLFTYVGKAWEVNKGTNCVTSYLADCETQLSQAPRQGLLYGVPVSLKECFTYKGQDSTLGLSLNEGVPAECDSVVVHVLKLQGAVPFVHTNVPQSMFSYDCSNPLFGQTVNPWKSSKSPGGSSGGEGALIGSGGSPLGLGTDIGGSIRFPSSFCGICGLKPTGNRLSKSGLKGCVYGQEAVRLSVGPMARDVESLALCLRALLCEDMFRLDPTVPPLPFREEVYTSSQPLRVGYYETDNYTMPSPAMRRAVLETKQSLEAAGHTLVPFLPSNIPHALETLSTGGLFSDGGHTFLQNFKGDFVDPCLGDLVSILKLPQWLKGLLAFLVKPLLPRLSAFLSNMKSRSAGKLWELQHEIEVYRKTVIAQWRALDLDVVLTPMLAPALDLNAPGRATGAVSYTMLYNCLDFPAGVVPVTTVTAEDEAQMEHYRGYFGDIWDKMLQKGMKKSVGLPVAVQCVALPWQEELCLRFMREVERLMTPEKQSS

[4] = test system: rat cortical neurons in primary cultures; test: [3H]-anandamide accumulation in rat cortical neurons in primary cultures; type: cell-based; conditions: Cortical neurone, read-out: IC50, inhibition of [3H]-anandamide accumulation in rat cortical neurons
Description: Primary cultures of rat cortical neurons were prepared as described (Evans, M. S. et al., J Neurosci Methods, 79, 37 (1998)). Briefly, cerebral cortices from 18 day-old rat embryos were dissected and cells were dissociated gently with a glass Pasteur pipette in phosphate-buffered saline (PBS, 10 mM, pH=7.5) containing glucose (6%, weight/volume). The cells were plated in 6-well plates (at a density of 5×10^5 cells per well) coated with poly-(L)-ornithine (10 μg/ml) and poly(DL)-lysine (100 μg/ml), and cultured in Eagle's Minimum Essential Medium (MEM) supplemented with heat-inactivated horse serum (5%, vol/vol) and fetal bovine serum (FBS, 5%, vol/vol), glucose (30 mM), L-glutamine (2 mM), penicillin (10 units/ml), streptomycin (10 μg/ml) and HEPES (15 mM, pH 7.4). After 3 days in culture, media were replaced with Neurobasal (Invitrogen, Carlsbad, Calif.) supplemented with B-27 containing L-glutamine (0.1 mM), streptomycin (10 μg/ml) and penicillin (10 units/ml). The cultures were maintained at 37° C. in a humidified atmosphere of 95% air and 5% CO2. […] The cells were rinsed twice with Tris-Krebs buffer, scraped twice into sodium hydroxide (0.2 N, 0.5 ml) and transferred into scintillation vials. […] All experiments were conducted in triplicate.

rat cortical neurons = conditions: read-out: apparent Michaelis constant, KM, of anandamide transport; cited from earlier work

T3 sequence (P20272 whole entry): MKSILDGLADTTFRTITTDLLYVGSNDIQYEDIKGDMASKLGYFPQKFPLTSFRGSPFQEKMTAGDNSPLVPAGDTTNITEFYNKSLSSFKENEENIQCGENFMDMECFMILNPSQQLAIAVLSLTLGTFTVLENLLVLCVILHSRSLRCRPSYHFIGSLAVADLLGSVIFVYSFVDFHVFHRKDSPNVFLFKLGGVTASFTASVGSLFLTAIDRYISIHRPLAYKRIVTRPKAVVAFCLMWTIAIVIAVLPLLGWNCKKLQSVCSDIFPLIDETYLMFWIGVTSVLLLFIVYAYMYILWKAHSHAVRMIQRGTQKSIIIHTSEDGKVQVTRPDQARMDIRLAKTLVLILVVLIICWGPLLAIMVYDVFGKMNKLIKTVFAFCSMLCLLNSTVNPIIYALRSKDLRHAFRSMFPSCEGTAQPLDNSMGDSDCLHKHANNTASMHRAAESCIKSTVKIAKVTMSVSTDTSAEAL

Cc1c(C(=O)NN2CCCCC2)nn(-c2ccc(Cl)cc2Cl)c1-c1ccc(I)cc1 [AM251, reference compound]
effect of antagonist on the anti-hyperalgesic and anti-edema effects of ARN272 (carrageenan-treated mice): suppressed

CCCCC/C=C\C/C=C\C/C=C\C/C=C\CCCC(=O)Nc1ccc(O)cc1 [AM404]
IC50 (rat FLAT-GST; purified recombinant FLAT, read-out: IC50, displacement of [3H]-anandamide binding to FLAT-GST): 5.3 µM | IC50 [1]: 4 µM

COc1ccc(C(=O)c2c(C)n(CCN3CCOCC3)c3cc(I)ccc23)cc1 [AM630, reference compound]
effect of antagonist on the anti-hyperalgesic and anti-edema effects of ARN272 (carrageenan-treated mice): ineffective

CC(C)(C)c1ccc(/C=C/C(=O)Nc2ccc3c(c2)OCCO3)cc1 [AMG9810, reference compound]
effect of antagonist on the anti-hyperalgesic and anti-edema effects of ARN272 (carrageenan-treated mice): ineffective

O=C(Nc1ccccc1)c1ccc(Nc2nnc(-c3ccc(O)cc3)c3ccccc23)cc1 [ARN272, 4-{[4-(4-hydroxyphenyl)phthalazin-1-yl]amino-N-phenylbenzamide}]
plasma concentrations of anandamide [2]: increased | plasma levels of 2-AG [2]: without changing | plasma levels of OEA [2]: without changing | plasma levels of PEA [2]: without changing | effect on [3H]-CP55940 binding to rat brain membranes [3]: did not significantly alter | inhibition at 100 µM (rat brain FAAH): 50% | fraction hydrolyzed by recombinant human FAAH-1 (recombinant human FAAH-1): ≈ 5% | mechanical hyperalgesia in inflamed paws (carrageenan-treated mice; 0.01-3 mg/kg intraperitoneal): dose-dependent reduction | thermal hyperalgesia in inflamed paws (carrageenan-treated mice; 0.01-3 mg/kg intraperitoneal): dose-dependent reduction | duration of anti-hyperalgesic effect (carrageenan-treated mice; after intraplantar carrageenan): up to 4 h | paw edema (carrageenan-treated mice; intraperitoneal): substantially reduced | IC50 [4]: 1.5 µM | IC50 [1]: 3.5 µM

CCCCC/C=C\C/C=C\C/C=C\C/C=C\CCCC(=O)NCc1ccoc1 [UCM707]
effect on [3H]-anandamide accumulation in FLAT-expressing Hek293 cells ([1]; transport inhibitors): prevented

CCCCC/C=C\C/C=C\C/C=C\C/C=C\CCCC(=O)Nc1ccc(O)cc1C [VDM11]
effect on [3H]-anandamide accumulation in FLAT-expressing Hek293 cells ([1]; transport inhibitors): prevented

CCCCC/C=C\C/C=C\C/C=C\C/C=C\CCCC(=O)NCCO [anandamide]
Km (rat cortical neurons): 1.2 µM | Kd (rat FLAT-GST; saturation binding, 25° C., 2 h, read-out: dissociation constant, Kd, of [3H]-anandamide binding to FLAT-GST): 2 µM | effect on [3H]-anandamide accumulation in FLAT-expressing Hek293 cells ([1]; non-radioactive anandamide, 100 μM): prevented
